Assay results: patent US9145346B1, “Process for 2,2,4,4-tetramethylcyclobutane-1,3-diol crystallization” (Eastman Chemical Company, priority 2014, dated 2015)

Test: Solubility (saturated concentration) of cis-TMCD and trans-TMCD in various solvents, by gas chromatography
Format: physicochemical
Experimental: All concentrations were measured by gas chromatography. Water concentration was measured by Karl Fischer titrations.
The solubility of cis-TMCD and trans-TMCD in various solvents was determined by charging cis-TMCD, trans-TMCD, and the solvent or solvents of interest into a 120 ml jacketed glass vessel. The vessel was equipped with a stir bar in order to provide mixing and the jacket was used to control the temperature of the vessel contents. The vessel was equipped with charging and sampling ports on top of the vessel.
The slurry was allowed to stand for a time sufficient for the solids to saturate the solvent at the desired temperature. At that time, a sample of the solution was withdrawn from the cell using a fritted pipette so as to remove only the liquid phase. The sample was analyzed for cis-TMCD and trans-TMCD isomer content. These values represent the saturated concentration of each isomer at the sampling temperature.
After this, the cell contents were heated to the next desired temperature and the contents were held for another time interval sufficient to allow the slurry to equilibrate. A sample was then taken of the solution and analyzed. Following this procedure, solubility data was collected up to the final desired temperature.
The reported solubility of each isomer at a given temperature for a given solvent is expressed as a weight % relative to the saturated concentration of the isomer at the highest temperature reported for a given solvent.

Work on `CC1(C)[C@H](O)C(C)(C)[C@H]1O` [trans-TMCD, trans-2,2,4,4-tetramethylcyclobutane-1,3-diol] yielded a Relative solubility (2-Ethylhexanol, 0.7° C., relative to 89.8° C.) of 11% relative wt %, a Relative solubility (2-Ethylhexanol, 12.5° C., relative to 89.8° C.) of 15% relative wt % and a Relative solubility (2-Ethylhexanol, 24.7° C., relative to 89.8° C.) of 20% relative wt %. It also gave a Relative solubility (2-Ethylhexanol, 40.0° C., relative to 89.8° C.) of 28% relative wt %, a Relative solubility (2-Ethylhexanol, 49.9° C., relative to 89.8° C.) of 36% relative wt % and a Relative solubility (2-Ethylhexanol, 60.2° C., relative to 89.8° C.) of 45% relative wt %. It also gave a Relative solubility (2-Ethylhexanol, 69.3° C., relative to 89.8° C.) of 57% relative wt %, a Relative solubility (2-Ethylhexanol, 79.3° C., relative to 89.8° C.) of 75% relative wt % and a Relative solubility (2-Ethylhexanol, 89.8° C., relative to 89.8° C.) of 100% relative wt %. It also gave a Relative solubility (2-Ethylhexyl Acetate, 5.9° C., relative to 79.4° C.) of 6% relative wt %, a Relative solubility (2-Ethylhexyl Acetate, 15.5° C., relative to 79.4° C.) of 9% relative wt % and a Relative solubility (2-Ethylhexyl Acetate, 25.1° C., relative to 79.4° C.) of 12% relative wt %. The Relative solubility (2-Ethylhexyl Acetate, 40.5° C., relative to 79.4° C.) was 22% relative wt %, the Relative solubility (2-Ethylhexyl Acetate, 49.8° C., relative to 79.4° C.) was 32% relative wt % and the Relative solubility (2-Ethylhexyl Acetate, 49.9° C., relative to 79.4° C.) was 33% relative wt %. For the same compound, the Relative solubility (2-Ethylhexyl Acetate, 60.5° C., relative to 79.4° C.) was 48% relative wt %, the Relative solubility (2-Ethylhexyl Acetate, 70.3° C., relative to 79.4° C.) was 74% relative wt % and the Relative solubility (2-Ethylhexyl Acetate, 79.4° C., relative to 79.4° C.) was 100% relative wt %. It also gave a Relative solubility (2-Ethylhexyl Acetate, −5.0° C., relative to 79.4° C.) of 4% relative wt %, a Relative solubility (CHDM, 69.0° C., relative to 106.9° C.) of 54% relative wt % and a Relative solubility (CHDM, 79.2° C., relative to 106.9° C.) of 74% relative wt %. It also gave a Relative solubility (CHDM, 88.9° C., relative to 106.9° C.) of 80% relative wt %, a Relative solubility (CHDM, 95.6° C., relative to 106.9° C.) of 91% relative wt % and a Relative solubility (CHDM, 106.9° C., relative to 106.9° C.) of 100% relative wt %. For the same compound, the Relative solubility (Dimethyl Carbonate, 6.2° C., relative to 70.1° C.) was 7% relative wt %, the Relative solubility (Dimethyl Carbonate, 16.3° C., relative to 70.1° C.) was 9% relative wt % and the Relative solubility (Dimethyl Carbonate, 25.7° C., relative to 70.1° C.) was 14% relative wt %. For the same compound, the Relative solubility (Dimethyl Carbonate, 40.5° C., relative to 70.1° C.) was 27% relative wt %, the Relative solubility (Dimethyl Carbonate, 54.7° C., relative to 70.1° C.) was 54% relative wt % and the Relative solubility (Dimethyl Carbonate, 70.1° C., relative to 70.1° C.) was 100% relative wt %. It also gave a Relative solubility (Ethanol, 5.3° C., relative to 60.3° C.) of 51% relative wt %, a Relative solubility (Ethanol, 14.3° C., relative to 60.3° C.) of 55% relative wt % and a Relative solubility (Ethanol, 25.5° C., relative to 60.3° C.) of 76% relative wt %. For the same compound, the Relative solubility (Ethanol, 39.9° C., relative to 60.3° C.) was 82% relative wt %, the Relative solubility (Ethanol, 50.1° C., relative to 60.3° C.) was 92% relative wt % and the Relative solubility (Ethanol, 60.3° C., relative to 60.3° C.) was 100% relative wt %. It also gave a Relative solubility (Ethyl Acetate, 4.2° C., relative to 54.9° C.) of 16% relative wt %, a Relative solubility (Ethyl Acetate, 15.0° C., relative to 54.9° C.) of 25% relative wt % and a Relative solubility (Ethyl Acetate, 26.2° C., relative to 54.9° C.) of 38% relative wt %. For the same compound, the Relative solubility (Ethyl Acetate, 40.5° C., relative to 54.9° C.) was 62% relative wt %, the Relative solubility (Ethyl Acetate, 54.9° C., relative to 54.9° C.) was 100% relative wt % and the Relative solubility (Ethyl Acetate, −5.1° C., relative to 54.9° C.) was 12% relative wt %. It also gave a Relative solubility (Ethylene Glycol, 26.5° C., relative to 91.4° C.) of 24% relative wt %, a Relative solubility (Ethylene Glycol, 36.2° C., relative to 91.4° C.) of 32% relative wt % and a Relative solubility (Ethylene Glycol, 48.5° C., relative to 91.4° C.) of 44% relative wt %. For the same compound, the Relative solubility (Ethylene Glycol, 61.5° C., relative to 91.4° C.) was 61% relative wt %, the Relative solubility (Ethylene Glycol, 72.1° C., relative to 91.4° C.) was 68% relative wt % and the Relative solubility (Ethylene Glycol, 82.2° C., relative to 91.4° C.) was 82% relative wt %. It also gave a Relative solubility (Methanol, 16.9° C., relative to 41.3° C.) of 82% relative wt %, a Relative solubility (Methanol, 25.6° C., relative to 41.3° C.) of 89% relative wt % and a Relative solubility (Methanol, 41.3° C., relative to 41.3° C.) of 100% relative wt %. For the same compound, the Relative solubility (Methanol, −2.5° C., relative to 41.3° C.) was 70% relative wt %, the Relative solubility (Methyl Acetate, 5.9° C., relative to 49.8° C.) was 14% relative wt % and the Relative solubility (Methyl Acetate, 15.5° C., relative to 49.8° C.) was 22% relative wt %. The Relative solubility (Methyl Acetate, 25.1° C., relative to 49.8° C.) was 33% relative wt %, the Relative solubility (Methyl Acetate, 40.5° C., relative to 49.8° C.) was 59% relative wt % and the Relative solubility (Methyl Acetate, 49.8° C., relative to 49.8° C.) was 100% relative wt %. For the same compound, the Relative solubility (Methyl Acetate, −5.0° C., relative to 49.8° C.) was 9% relative wt %, the Relative solubility (Methyl i-Butyl Carbinol, 9.4° C., relative to 81.9° C.) was 18% relative wt % and the Relative solubility (Methyl i-Butyl Carbinol, 20.4° C., relative to 81.9° C.) was 23% relative wt %. For the same compound, the Relative solubility (Methyl i-Butyl Carbinol, 31.1° C., relative to 81.9° C.) was 29% relative wt %, the Relative solubility (Methyl i-Butyl Carbinol, 40.0° C., relative to 81.9° C.) was 39% relative wt % and the Relative solubility (Methyl i-Butyl Carbinol, 49.5° C., relative to 81.9° C.) was 47% relative wt %. The Relative solubility (Methyl i-Butyl Carbinol, 60.0° C., relative to 81.9° C.) was 60% relative wt %, the Relative solubility (Methyl i-Butyl Carbinol, 69.5° C., relative to 81.9° C.) was 77% relative wt % and the Relative solubility (Methyl i-Butyl Carbinol, 81.9° C., relative to 81.9° C.) was 100% relative wt %. It also gave a Relative solubility (i-Butyl Acetate, 4.8° C., relative to 90.1° C.) of 6% relative wt %, a Relative solubility (i-Butyl Acetate, 16.9° C., relative to 90.1° C.) of 9% relative wt % and a Relative solubility (i-Butyl Acetate, 25.6° C., relative to 90.1° C.) of 12% relative wt %. For the same compound, the Relative solubility (i-Butyl Acetate, 41.3° C., relative to 90.1° C.) was 21% relative wt %, the Relative solubility (i-Butyl Acetate, 56.2° C., relative to 90.1° C.) was 36% relative wt % and the Relative solubility (i-Butyl Acetate, 70.2° C., relative to 90.1° C.) was 58% relative wt %. The Relative solubility (i-Butyl Acetate, 90.1° C., relative to 90.1° C.) was 100% relative wt %, the Relative solubility (i-Butyl Acetate, −2.5° C., relative to 90.1° C.) was 5% relative wt % and the Relative solubility (n-Butanol, 5.9° C., relative to 60.5° C.) was 44% relative wt %. It also gave a Relative solubility (n-Butanol, 15.5° C., relative to 60.5° C.) of 49% relative wt %, a Relative solubility (n-Butanol, 25.1° C., relative to 60.5° C.) of 58% relative wt % and a Relative solubility (n-Butanol, 40.5° C., relative to 60.5° C.) of 72% relative wt %. For the same compound, the Relative solubility (n-Butanol, 49.8° C., relative to 60.5° C.) was 86% relative wt %, the Relative solubility (n-Butanol, 49.9° C., relative to 60.5° C.) was 86% relative wt % and the Relative solubility (n-Butanol, 60.5° C., relative to 60.5° C.) was 100% relative wt %. It also gave a Relative solubility (n-Butanol, −5.0° C., relative to 60.5° C.) of 39% relative wt %, a Relative solubility (n-Butyl Propionate, 6.5° C., relative to 91.9° C.) of 5% relative wt % and a Relative solubility (n-Butyl Propionate, 16.8° C., relative to 91.9° C.) of 8% relative wt %. It also gave a Relative solubility (n-Butyl Propionate, 27.7° C., relative to 91.9° C.) of 13% relative wt %, a Relative solubility (n-Butyl Propionate, 41.7° C. (sample 4), relative to 91.9° C.) of 16% relative wt % and a Relative solubility (n-Butyl Propionate, 41.7° C. (sample 5), relative to 91.9° C.) of 22% relative wt %. The Relative solubility (n-Butyl Propionate, 52.0° C., relative to 91.9° C.) was 32% relative wt %, the Relative solubility (n-Butyl Propionate, 61.5° C., relative to 91.9° C.) was 44% relative wt % and the Relative solubility (n-Butyl Propionate, 69.1° C., relative to 91.9° C.) was 59% relative wt %. It also gave a Relative solubility (n-Butyl Propionate, 80.7° C., relative to 91.9° C.) of 78% relative wt %, a Relative solubility (n-Butyl Propionate, 91.9° C., relative to 91.9° C.) of 100% relative wt % and a Relative solubility (n-Propyl Propionate, 7.0° C., relative to 72.2° C.) of 11% relative wt %. It also gave a Relative solubility (n-Propyl Propionate, 17.1° C., relative to 72.2° C.) of 15% relative wt %, a Relative solubility (n-Propyl Propionate, 26.7° C., relative to 72.2° C.) of 22% relative wt % and a Relative solubility (n-Propyl Propionate, 37.4° C., relative to 72.2° C.) of 29% relative wt %. The Relative solubility (n-Propyl Propionate, 42.4° C., relative to 72.2° C.) was 37% relative wt %, the Relative solubility (n-Propyl Propionate, 52.2° C., relative to 72.2° C.) was 53% relative wt % and the Relative solubility (n-Propyl Propionate, 62.9° C., relative to 72.2° C.) was 76% relative wt %. It also gave a Relative solubility (n-Propyl Propionate, 72.2° C., relative to 72.2° C.) of 100% relative wt %.
